From patent publication US7053043B1, “Pharmaceutical compositions comprising synthetic peptide copolymers and methods for preventing and treating GVHD and HVGD” (Yeda Research and Development Co.Ltd., priority 1999, dated 2006)

Tests used:
[1] = system: proliferation of B10.PL (H-2u) responder cells to BALB/c stimulator cells; experiment: Mixed lymphocyte reaction (MLR) across major histocompatibility barriers, B10.PL vs BALB/c; type: cell-based, mice; conditions: 20 μg/well, Cop 1 Batch I, 1:1 ratio of responder to stimulator cells
Description: (§1) Responder cells for MLR reactions across major histocompatibility barriers were harvested from spleen of non-immunized mice while responder cells for MLR across minor histocompatibility barriers were harvested from mice which were preimmunized with irradiated (30 Gy) 50×10^6 stimulator spleen cells 21 days before. Responder cells (5×10^5 spleen cells per well) were tested for their proliferative response by plating with different amounts (2.5 to 10×10^5) of irradiated stimulator cells, in presence or absence of various peptide inhibitors (10–100 μg per well). Cultures were set up in 200 μl media containing 10% FCS in flat-bottom microtiter plates. After 4 days of incubation, cultures were pulsed with 1 μCi of [^3H]thymidine for an additional 16 hours. Results are represented as mean counts per minute (cpm) thymidine incorporation from triplicate cultures.
(§2) To investigate the feasibility of inhibition of MLR by Copolymer 1, an MLR system was developed in which Copolymer 1 was tested for its ability to inhibit the proliferation of B10.PL (H-2^u) responder cells to stimulator cells of either the same (PL/J) or different (BALB/c) H-2 haplotype. For comparison, the inhibitory MBP Ac 1-11[4A], MBP 35-47, a combination of Ac 1-1[4A]+MBP 35-47, MBP 89-101 and KM-core peptides, described in Schlegel et al. (1994), were used in the MLR experiments.
(§3) The inhibition obtained by Copolymer 1 was similar (in response to minor histocompatibility antigen) or even higher (in response to major histocompatibility antigen) than the inhibition obtained with the combination of the two synthetic peptides Ac 1-11[4A] and MBP 35-47, which specifically bind to the class II molecules I-A^u and the I-E^u, respectively. The molar efficiency of Copolymer 1 of M.W. 6000 is even higher since the molecular weight of the synthetic peptides is 4–5 fold lower.

[2] = system: T cell proliferation in MHC-disparate mixed lymphocyte cultures; experiment: Mixed lymphocyte cultures across major histocompatibility barriers, six MHC-disparate strain combinations; type: cell-based, mice
Description: as §1

[3] = system: proliferation of B10.PL (H-2u) responder cells to PL/J stimulator cells; experiment: Mixed lymphocyte reaction (MLR) across minor histocompatibility barriers; type: cell-based, mice; conditions: 20 μg/well, Cop 1 Batch I, 1:1 ratio of responder to stimulator cells
Description: as §1, §2, §3

[4] = system: B10.D2 responder T cells with APC presenting BALB/c mH antigens; experiment: Proliferative responses to minor H antigens in vitro, Cop 1 present in the assay; type: cell-based, mice; conditions: for cpm (Cop 1 Assay Concentration): Resp. + APC
Description: B10.D2 mice were injected ip. with irradiated (20 Gy) BALB/c spleen cells 72 hours prior to the assay. B10.D2 spleen cells were harvested, depleted of red blood cells (RBC) and used as irradiated (10 Gy) antigen-presenting cells (APC) presenting BALB/c mH antigens. For the primary assay, APC were plated at 2.5×10^5 cells per well in 96-well round-bottom plates and incubated with 2.5×10^5 nylon-wool-enriched responder T cells (>88% CD3^+ by FACS […]). After 96 hours of incubation, cells were pulsed with 1 μCi [^3H]-thymidine for an additional 16 hours before harvesting. In the secondary assay, irradiated APC were plated at 2.5×10^5 cells/well in 96-well round-bottom plates, preincubated for 24 hours at 37° C. with increasing concentrations of GLAT (2.5–80 μg/well) or with medium alone, and thereafter washed three times before the addition of 2.5×10^5 nylon-wool-enriched responder T cells from naive B10.D2 mice. Culture medium was RPMI 1640, supplemented with 10% pre-screened fetal calf serum, 2 mM glutamine, 50 μM 2-mercaptoethanol, 100 U/ml penicillin, and 100 μg/ml streptomycin.
B10.D2 mice were injected ip with irradiated (20 Gy) BALB/c spleen cells 72 hours prior to the assay. B10.D2 spleen cells were harvested, depleted of RBC and used as irradiated (10 Gy) APC presenting BALB/c mH antigens. APC were plated at 2.5×10^5 cells/well in 96-well round-bottom plates and incubated with 2.5×10^5 nylon-wool-enriched responder T cells (>88% CD3^+ by FACS analysis) from naive B10.D2 mice in the presence or absence of increasing concentrations of Copolymer 1 (Batch I) (2.5–80 μg/well). After 96 hours of incubation, cells were pulsed with 1 μCi [^3H]-thymidine for an additional 16 hours before harvesting. […] Maximum inhibition was 100% at a concentration of 80 μg/well.

[5] = system: GVHD in B10.D2 → BALB/c recipients; experiment: Murine lethal GVHD model after bone marrow transplantation, B10.D2/nSnJ→BALB/c; type: in vivo, mice; conditions: for overall incidence of GVHD: 600 μg per injection (ip + sc)
Description: The murine GVHD model of B10.D2/nSnJ→BALB/c mice (both H-2^d) across minor histocompatibility barriers, was selected since it is similar to the MHC matched bone marrow transplantation in humans. For the induction of GVHD, 10×10^6 bone marrow and 100×10^6 spleen cells from B10.D2 mice were injected into lethally irradiated (8.0 Gy) BALB/c recipients. […] Recipient mice were 12–13 weeks at the time of transplantation.
Based on previous studies with Cop 1 in EAE (Sela et al., 1990; Teitelbaum et al., 1971; Teitelbaum et al., 1973) and class II-binding competitor peptides in GVHD (Schlegel et al., 1994), the dosage of 600 μg per injection was selected, half of which was administered intraperitoneally (ip), whereas the other half was given subcutaneously (sc). Treatment of BALB/c recipient mice was initiated on day −1, followed by daily injections for the first five weeks starting on day 0 after transplantation. The frequency of injections was tapered to three times per week for the subsequent two weeks and to two times per week for another two weeks and then discontinued. Throughout the experiment, copolymers and controls were administered once a week with incomplete Freund's adjuvant (IFA) ip as a depot dose (Schlegel et al., 1994). Treatment was discontinued 9 weeks after transplantation.
Mice were followed up daily for 140 days after bone marrow transplantation for signs of GVHD. Disease severity was assessed by mortality, loss of body weight, and by the extent of macroscopic skin involvement scored on a cumulative scale (from min O— max 8): head 1, neck 1, back (1/3, 2/3, 3/3) 1–3, front (1/3, 2/3, 3/3) 1–3. Skin biopsies were examined as previously described (Schlegel et al., 1994).
(ii) Effect of Copolymer 1 Treatment on the Incidence, Onset and Severity of GVHD. […] For the first five weeks after transplant mice were injected daily as outlined in Materials and Methods, followed by a tapering schedule over an additional four weeks.
(iii) Effect of Copolymer 1 treatment on survival. […]

Glatiramer acetate [Cop 1]
inhibition of MLR [1]: 77% | inhibitory effect on the MLC ([2]; 10–100 μg/well, all concentrations tested): dose-dependent inhibition | concentration sufficient to achieve 50% inhibition of the proliferative responses ([2]; Batch I): 10–25 μg/well | Maximum inhibition ([2]; all strain combinations tested): 100% | inhibition of MLR [3]: 63% | Maximum inhibition of proliferative responses to mH antigens ([4]; 80 μg/well): 100% | cpm (Cop 1 Assay Concentration) ([4]; Cop 1 1.5 μg): 124,904 cpm | cpm (Cop 1 Assay Concentration) ([4]; Cop 1 5 μg): 126,405 cpm | cpm (Cop 1 Assay Concentration) ([4]; Cop 1 10 μg): 119,866 cpm | cpm (Cop 1 Assay Concentration) ([4]; Cop 1 20 μg): 75,840 cpm | cpm (Cop 1 Assay Concentration) ([4]; Cop 1 40 μg): 23,591 cpm | cpm (Cop 1 Assay Concentration) ([4]; Cop 1 80 μg): 361 cpm | long-term survival from lethal graft-versus-host disease ([5]; 600 μg per injection): improved long-term survival | animals (without GVHD) to the observation period of 140 days after transplant ([5]; 600 μg per injection, Batch I): Nine of 25 | mice survived more than 140 days after transplant ([5]; 600 μg per injection, Batch I): 56% | overall disease severity (disease severity score, mean body weight curves) ([5]; 600 μg per injection, Batch I): improved overall disease severity | overall incidence of GVHD ([5]; day 30 after transplant, Cop 1 Batch I): 12% | overall incidence of GVHD ([5]; day 70 after transplant, Cop 1 Batch I): 48% | median onset of GVHD ([5]; days after transplant, 600 μg per injection): 73 days | onset of GVHD, range ([5]; days after transplant, in 12/25 treated animals, 600 μg per injection): 32 to 112 days | mice survived more than 140 days after transplant ([5]; survivors/treated, 600 μg per injection, Cop 1 Batch I): 14/25
